{"source": "patent US20260133203A1", "about": "“DETECTION OF FUMARATE-DERIVED MODIFICATION IN A TEST SAMPLE” (UNIVERSITY OF SOUTH CAROLINA, priority 2017, published 2026)", "test_system": "rat primary neurons", "assay": "Western blot detection of succinated proteins with anti-2SC antibody, without ester hydrolysis", "format": "cell-based", "settings": "100 μM DMF, 24 hours, absence of ester hydrolysis", "description": "Primary neurons from newborn rat brain cortices were isolated and cultured using an adaptation of methods described previously. Briefly, postnatal day 1 rats were sacrificed by decapitation, the brains were aseptically dissected, and cortices were separated from the rest of the brain in ice-cold Hibernate®-A medium (Life Technologies) containing 2% (v/v) B-27 supplement (Life Technologies) and 0.5 mM glutamine (Invitrogen™). The tissue was minced in fragments of about 1 mm3 with a scalpel and subjected to digestion with 2 mg/ml papain (Worthington) in the supplemented Hibernate®-A medium for 20 minutes at 30° C. in a shaker incubator set at 100 rpm. After thorough trituration through a fire-polished Pasteur pipette, the tissue was allowed to settle for 5 minutes and the supernatant was carefully layered on top of a discontinuous OptiPrep™ (Sigma-Aldrich™) gradient prepared in Hibernate®-A medium; the layers contained 35, 25, 20 and 15% OptiPrep™. […] After a centrifugation at 500 g for 5 min at room temperature, cells were resuspended in Neurobasal™—A medium containing 0.5 mM glutamine, 2% B-27 supplement, and 5 ng/ml bFGF (Invitrogen™); counted and plated on 24-well plates pretreated with 0.01% poly-L-lysine (Sigma-Aldrich™) at a density of 200,000 cells/well. […] The protein content in the different samples was determined by the Lowry assay. […]", "note": "Structures can show the parent of a compound that is named as a salt.", "data": [{"molecule": "COC(=O)/C=C/C(=O)OC", "note": "[DMF, dimethyl fumarate]", "values": [{"measurement": "detection of succinated proteins using the anti-2SC antibody", "value": "only one band ˜50 kDa showing a significant increase in intensity"}]}]}
